{"source": "patent EP0666841B1", "about": "“SUCCINOYLAMINO HYDROXYETHYLAMINO SULFAMIC ACID DERIVATIVES USEFUL AS RETROVIRAL PROTEASE INHIBITORS” (G.D. SEARLE & CO., priority 1992, dated 1994)", "target": "T1, HIV protease (Human immunodeficiency virus type 1 group M subtype B, UniProt P04585)", "T1 construct": "HIV protease is diluted in the assay buffer to a final enzyme concentration of 12.3 nanomolar, based on a molecular weight of 10,780", "assay": "HIV protease enzyme assay (fluorescence, peptide substrate)", "assay_type": "biochemical", "conditions": "read-out: IC50 or % inhibition", "excerpt": "The compounds of the present invention are effective HIV protease inhibitors. Utilizing an enzyme assay as described below, the compounds set forth in the examples herein disclosed inhibited the HIV enzyme. The preferred compounds of the present invention and their calculated IC50 (inhibiting concentration 50%, i.e., the concentration at which the inhibitor compound reduces enzyme activity by 50%) values are shown in Table 17. The enzyme method is described below. The substrate is 2-Ile-Nle-Phe(p-NO2)-Gln-ArgNH2. The positive control is MVT-101 (Miller, M. et al, Science, 246, 1149 (1989)] The assay conditions are as follows: Assay buffer: 20 mM sodium phosphate, pH 6.4 20% glycerol 1 mM EDTA 1 mM DTT 0.1% CHAPS\nThe above described substrate is dissolved in DMSO, then diluted 10 fold in assay buffer. Final substrate concentration in the assay is 80 µM.\nHIV protease is diluted in the assay buffer to a final enzyme concentration of 12.3 nanomolar, based on a molecular weight of 10,780.\nThe final concentration of DMSO is 14% and the final concentration of glycerol is 18%. The test compound is dissolved in DMSO and diluted in DMSO to 10x the test concentration; 10µl of the enzyme preparation is added, the materials mixed and then the mixture is incubated at ambient temperature for 15 minutes. The enzyme reaction is initiated by the addition of 40µl of substrate. The increase in fluorescence is monitored at 4 time points (0, 8, 16 and 24 minutes) at ambient temperature. Each assay is carried out in duplicate wells.", "data": [{"smiles": "CC(C)(C)NS(=O)(=O)N(C[C@@H](O)[C@H](Cc1ccccc1)NC(=O)OCc1ccccc1)C1CCCCC1", "note": "[K]", "values": [{"measurement": "inhibition at 1 µM", "result": 60, "unit": "%"}]}, {"smiles": "CC(C)CN(C[C@@H](O)[C@H](Cc1ccccc1)NC(=O)OCc1ccccc1)S(=O)(=O)NC(C)C", "note": "[C]", "values": [{"measurement": "inhibition at 1 µM", "result": 59, "unit": "%"}]}, {"smiles": "CC(C)(C)NS(=O)(=O)N(Cc1ccccc1)C[C@@H](O)[C@H](Cc1ccccc1)NC(=O)OCc1ccccc1", "note": "[H]", "values": [{"measurement": "inhibition at 10 µM", "result": 48, "unit": "%"}]}, {"smiles": "CC(C)CN(C[C@@H](O)[C@H](Cc1ccccc1)NC(=O)OCc1ccccc1)S(=O)(=O)N1CCCC1", "note": "[F]", "values": [{"measurement": "inhibition at 0.1 µM", "result": 22, "unit": "%"}]}, {"smiles": "CC(C)CN(C[C@@H](O)[C@H](Cc1ccccc1)NC(=O)OCc1ccccc1)S(=O)(=O)Nc1ccccc1", "note": "[E]", "values": [{"measurement": "IC50", "setting": "IC50 values printed in nM", "result": 70, "unit": "nM"}]}, {"smiles": "CN(C)S(=O)(=O)N(Cc1ccc(F)cc1)C[C@@H](O)[C@H](Cc1ccccc1)NC(=O)OCc1ccccc1", "note": "[B]", "values": [{"measurement": "inhibition at 10 µM", "result": 55, "unit": "%"}]}, {"smiles": "CC(C)CN(C[C@@H](O)[C@H](Cc1ccccc1)NC(=O)OCc1ccccc1)S(=O)(=O)N1CCN(C)CC1", "note": "[D]", "values": [{"measurement": "inhibition at 0.1 µM", "result": 29, "unit": "%"}]}, {"smiles": "CNS(=O)(=O)N(CC(C)C)C[C@@H](O)[C@H](Cc1ccccc1)NC(=O)OCc1ccccc1", "note": "[A]", "values": [{"measurement": "inhibition at 0.1 µM", "result": 29, "unit": "%"}]}]}
